Read-outs that look alike come from different tables or passages of the source.
Key:
S100P-RAGE interaction = target: T1, S100P-RAGE interaction (Homo sapiens, UniProt P25815); experiment: ELISA of S100P-RAGE binding inhibition; conditions: for ELISA inhibition: concentration with significant inhibition of S100P-RAGE binding, asterisks = significance by one-way ANOVA
T1 construct: His tag (N); made in house; host or cells: Escherichia coli BL21*
T1 sequence (P25815 1-95): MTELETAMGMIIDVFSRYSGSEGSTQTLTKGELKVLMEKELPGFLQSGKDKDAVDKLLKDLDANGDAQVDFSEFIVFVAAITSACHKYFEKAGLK
Protocol: The purchased computational screening hits were subjected to initial biological testing for inhibition of S100P-RAGE binding (ELISA), with cromolyn as positive control, using an adaptation of the reported ELISA for S100 family members.
Fig. 2 Effects of compounds 1–14 on S100P binding to RAGE. Human S100P (2 μM) coated wells were incubated with increasing concentrations of the compound tested, in triplicate, and exposed to human RAGE-Fc (100 nM) followed by goat anti-human secondary antibody to detect RAGE bound S100P. Data are compared to S100P/RAGE binding with no inhibitor (DMSO, 100%) and are presented as mean ± SEM; data is significant by one way ANOVA, where ∗ = p < 0.05, ∗∗ = p < 0.01 and ∗∗∗ = p < 0.001; n = 9 from 3 plates.
To generate human S100P recombinant protein, a pQE-30 ([…]) plasmid encoding S100P with N-terminal histidine tags (gifted by Dr Igor Barsukov, Liverpool University, UK), was transformed into BL21∗ competent Escherichia coli cells. Recombinant protein was purified using a HisTrap Nickel-nitrilotriacetic acid (Ni-NTA) agarose column (GE Healthcare, UK).
Purified recombinant S100P (2μM/well) in phosphate buffer (PBS; 137 mM NaCl, 2.7 mM KCl, 10 mM Na2HPO4, 1.8 mM KH2PO4, pH 7.4; supplemented with 1 mM CaCl2, 10 μM ZnCl2, and 0.5 mM MgCl2) was used for coating a 96 well plate (NunclonDelta, Fisher), and incubated overnight at 37 °C.
Following washing, S100P non-specific binding sites were blocked with 1% bovine serum albumin (BSA; Fisher, UK) in PBS for 2 h at 37 °C. Following three washes, S100P was incubated with increasing concentrations of compounds, in parallel to cromolyn and DMSO treated wells, all in triplicate. Then 30 nM recombinant human receptor for advanced glycation end products (rh/RAGE-Fc; R&D Systems) was added and incubated for 1 h at 37 °C. Controls included a negative control (S100P protein, no RAGE-Fc), a positive control (S100P protein plus RAGE), and vehicle control (0.001% DMSO in PBS) were included in each plate. After three washes in PBS, all wells were exposed to goat anti-human HRP conjugate (1:1000; Millipore) for 1 h at 37 °C in order to detect bound receptors. Subsequent to washes, wells were incubated for 20 min in the dark with 3,3′,5,5′-tetramethylbenzidene (TMB) substrate (Sigma, UK). Plates were read at 450 nm using a Multiskan Ascent spectrophotometer (Fisher Scientific, UK). All sample readings were normalized to the positive control (S100P plus RAGE-Fc). Statistical analysis was performed and graphs plotted using the GraphPad Prism software in the following way: One Way ANOVA was used to compare the effects of concentration of each compound to the effects of vehicle control (DMSO), and p values of <0.05 were considered statistically significant. A post hoc analysis was conducted using Dunnetts multiple comparisons test; results are indicated by ∗ = p < 0.05; ∗∗ = p < 0.01 and ∗∗∗ = p < 0.001.

[1] = Table 1, ELISA, human S100P 2 μM coated wells, human RAGE-Fc, read-out: Estimated IC50

Molecule Cc1ccc(-c2ccc(=O)n(CC(=O)Nc3ccc(-n4cnnn4)cc3)n2)cc1 [Compound 6] has an IC50 (S100P-RAGE interaction; [1]) of 0.555 nM.
With O=C1C2C3c4ccccc4C([N+](=O)[O-])(c4ccccc43)C2C(=O)N1c1cccc([N+](=O)[O-])c1 (stereo not drawn) [Compound 4d, 9-Nitro-13-(3-nitrophenyl)-9,10-dihydro-9,10-[3,4]epipyrroloanthracene-12,14-dione] the ELISA inhibition (S100P-RAGE interaction; Table 2) was “– (no significant inhibition below 1 μM)”.
For CC(C)(C)c1ccc(N2C(=O)C3C4c5ccccc5C([N+](=O)[O-])(c5ccccc54)C3C2=O)cc1 (stereo not drawn) [Compound 4l, 13-(4-(tert-butyl)phenyl)-9-nitro-9,10-dihydro-9,10-[3,4]epipyrroloanthracene-12,14-dione], the ELISA inhibition (S100P-RAGE interaction; Table 2) was “- (no significant inhibition below 1 μM)”.
For O=C1C2C3c4ccccc4C(c4ccccc43)C2C(=O)N1c1cccc(F)c1 (stereo not drawn) [Compound 4o, 13-(3-fluorophenyl)-9,10-dihydro-9,10-[3,4]epipyrroloanthracene-12,14-dione], the melting point was 228 to 230 °C, the “concentration with significant inhibition of S100P-RAGE binding” value (S100P-RAGE interaction; ELISA) was ≤ 100 nM and the IC50 (S100P-RAGE interaction; Table 2, ELISA, analog series of hit 4, read-out: Estimated IC50) was 1.3 nM. The ELISA inhibition (S100P-RAGE interaction; Table 2) was 10 nM∗.
In the case of O=C1C2C3c4ccccc4C([N+](=O)[O-])(c4ccccc43)C2C(=O)N1c1ccccc1 (stereo not drawn) [Compound 4e, 9-Nitro-13-phenyl-9,10-dihydro-9,10-[3,4]epipyrroloanthracene-12,14-dione], the ELISA inhibition (S100P-RAGE interaction; Table 2) is reported as “– (no significant inhibition below 1 μM)”.
With O=C1C2C3c4ccccc4C([N+](=O)[O-])(c4ccccc43)C2C(=O)N1c1ccc(I)cc1 (stereo not drawn) [Compound 4k, 13-(4-iodophenyl)-9-nitro-9,10-dihydro-9,10-[3,4]epipyrroloanthracene-12,14-dione] the ELISA inhibition (S100P-RAGE interaction; Table 2) was “– (no significant inhibition below 1 μM)”.
In the case of O=C(O)c1cccc(N2C(=O)C3C4c5ccccc5C([N+](=O)[O-])(c5ccccc54)C3C2=O)c1 (stereo not drawn) [Compound 4, 3-(9-Nitro-12,14-dioxo-9,10-dihydro-9,10-[3,4]epipyrroloanthracen-13-yl)benzoic acid], the melting point is reported as 271 to 272 °C, the “concentration with significant inhibition of S100P-RAGE binding” value (S100P-RAGE interaction; ELISA) is reported as ≥ 10 nM and the IC50 (S100P-RAGE interaction; [1]) is reported as 22.7 nM. The ELISA inhibition (S100P-RAGE interaction; Table 2) was 10 nM∗∗.
For O=C1C2C3c4ccccc4C([N+](=O)[O-])(c4ccccc43)C2C(=O)N1c1ccc([N+](=O)[O-])cc1 (stereo not drawn) [Compound 4j, 9-Nitro-13-(4-nitrophenyl)-9,10-dihydro-9,10-[3,4]epipyrroloanthracene-12,14-dione], the ELISA inhibition (S100P-RAGE interaction; Table 2) was “– (no significant inhibition below 1 μM)”.
For CCOC(=O)c1ccc(N2C(=O)C3C4c5ccccc5C(c5ccccc54)C3C2=O)cc1 (stereo not drawn) [Compound 4t, Ethyl 4-(12,14-dioxo-9,10-dihydro-9,10-[3,4]epipyrroloanthracen-13-yl)benzoate], the ELISA inhibition (S100P-RAGE interaction; Table 2) was “– (no significant inhibition below 1 μM)”.
In the case of O=C1C2C3c4ccccc4C([N+](=O)[O-])(c4ccccc43)C2C(=O)N1c1ccc(F)cc1 (stereo not drawn) [Compound 4h, 13-(4-fluorophenyl)-9-nitro-9,10-dihydro-9,10-[3,4]epipyrroloanthracene-12,14-dione], the ELISA inhibition (S100P-RAGE interaction; Table 2) is reported as “– (no significant inhibition below 1 μM)”.
With O=C1C2C3c4ccccc4C([N+](=O)[O-])(c4ccccc43)C2C(=O)N1c1ccc(Cl)cc1 (stereo not drawn) [Compound 4i, 13-(4-chlorophenyl)-9-nitro-9,10-dihydro-9,10-[3,4]epipyrroloanthracene-12,14-dione] the ELISA inhibition (S100P-RAGE interaction; Table 2) was “– (no significant inhibition below 1 μM)”.
In the case of O=C1C2C3c4ccccc4C(c4ccccc43)C2C(=O)N1c1ccc([N+](=O)[O-])cc1 (stereo not drawn) [Compound 4w, 13-(4-nitrophenyl)-9,10-dihydro-9,10-[3,4]epipyrroloanthracene-12,14-dione], the ELISA inhibition (S100P-RAGE interaction; Table 2) is reported as “– (no significant inhibition below 1 μM)”.
For O=C(O)c1ccc(N2C(=O)C3C4c5ccccc5C(c5ccccc54)C3C2=O)cc1 (stereo not drawn) [Compound 4s, 4-(12,14-Dioxo-9,10-dihydro-9,10-[3,4]epipyrroloanthracen-13-yl)benzoic acid], the ELISA inhibition (S100P-RAGE interaction; Table 2) was “– (no significant inhibition below 1 μM)”.
With CC(C)(C)c1ccc(N2C(=O)C3C4c5ccccc5C(c5ccccc54)C3C2=O)cc1 (stereo not drawn) [Compound 4y, 13-(4-(tert-butyl)phenyl)-9,10-dihydro-9,10-[3,4]epipyrroloanthracene-12,14-dione] the ELISA inhibition (S100P-RAGE interaction; Table 2) was “- (no significant inhibition below 1 μM)”.
In the case of O=C1C2C3c4ccccc4C(c4ccccc43)C2C(=O)N1c1cccc([N+](=O)[O-])c1 (stereo not drawn) [Compound 4q, 13-(3-nitrophenyl)-9,10-dihydro-9,10-[3,4]epipyrroloanthracene-12,14-dione], the ELISA inhibition (S100P-RAGE interaction; Table 2) is reported as “– (no significant inhibition below 1 μM)”.
Molecule N#CCCn1cc(C(=O)Nc2ccc(C(=O)O)cc2)c(-c2ccccc2)n1 [Compound 5] has an IC50 (S100P-RAGE interaction; [1]) of 0.6 nM.
For O=C(O)c1cccc(N2C(=O)C3C4c5ccccc5C(c5ccccc54)C3C2=O)c1 (stereo not drawn) [Compound 4m, 3-(12,14-Dioxo-9,10-dihydro-9,10-[3,4]epipyrroloanthracen-13-yl)benzoic acid], the ELISA inhibition (S100P-RAGE interaction; Table 2) was “– (no significant inhibition below 1 μM)”.
CCCN1CCc2c(sc3c2c(NCCc2ccccc2)nc2nnnn23)C1 [Compound 14] showed an IC50 (S100P-RAGE interaction; [1]) of 77 nM.
COc1ccc(/C=C2/C(=O)NC(=O)N(c3ccc(Cl)c(Cl)c3)C2=O)cc1C(=O)O [Compound 3] showed an IC50 (S100P-RAGE interaction) of 0.514 nM.
For O=C1C2C3c4ccccc4C([N+](=O)[O-])(c4ccccc43)C2C(=O)N1c1cccc(Cl)c1 (stereo not drawn) [Compound 4c, 13-(3-chlorophenyl)-9-nitro-9,10-dihydro-9,10-[3,4]epipyrroloanthracene-12,14-dione], the ELISA inhibition (S100P-RAGE interaction; Table 2) was “– (no significant inhibition below 1 μM)”.
In the case of O=C1C2C3c4ccccc4C(c4ccccc43)C2C(=O)N1c1ccc(Cl)cc1 (stereo not drawn) [Compound 4v, 13-(4-chlorophenyl)-9,10-dihydro-9,10-[3,4]epipyrroloanthracene-12,14-dione], the ELISA inhibition (S100P-RAGE interaction; Table 2) is reported as “– (no significant inhibition below 1 μM)”.
For O=C1C2C3c4ccccc4C(c4ccccc43)C2C(=O)N1c1ccc(I)cc1 (stereo not drawn) [Compound 4x, 13-(4-iodophenyl)-9,10-dihydro-9,10-[3,4]epipyrroloanthracene-12,14-dione], the ELISA inhibition (S100P-RAGE interaction; Table 2) was “– (no significant inhibition below 1 μM)”.
With O=C1C2C3c4ccccc4C(c4ccccc43)C2C(=O)N1c1cccc(Cl)c1 (stereo not drawn) [Compound 4p, 13-(3-chlorophenyl)-9,10-dihydro-9,10-[3,4]epipyrroloanthracene-12,14-dione] the ELISA inhibition (S100P-RAGE interaction; Table 2) was “– (no significant inhibition below 1 μM)”.
O=C(O)CNC(=O)CCCn1c(=O)[nH]c2ccccc2c1=O [Compound 10] showed an IC50 (S100P-RAGE interaction; [1]) of 42.6 nM.
For CCOC(=O)c1cccc(N2C(=O)C3C4c5ccccc5C(c5ccccc54)C3C2=O)c1 (stereo not drawn) [Compound 4n, Ethyl 3-(12,14-dioxo-9,10-dihydro-9,10-[3,4]epipyrroloanthracen-13-yl)benzoate], the ELISA inhibition (S100P-RAGE interaction; Table 2) was “– (no significant inhibition below 1 μM)”.
COc1ccc(-c2noc(CCCC(=O)O)n2)cc1 [Compound 12] showed an IC50 (S100P-RAGE interaction; [1]) of 264 nM.
For Nc1nnn(CC(=O)N/N=C/c2cccs2)n1 [Compound 9], the IC50 (S100P-RAGE interaction; [1]) was 7.7 nM.
O=C(O)CCNC(=O)Cn1nnc2ccccc2c1=O [Compound 11] showed an IC50 (S100P-RAGE interaction; [1]) of 6.89 nM.
For O=C(Cc1cc(O)n[nH]1)N/N=C/c1c(Cl)cccc1Cl [Compound 7], the IC50 (S100P-RAGE interaction; [1]) was 19 nM.
With Cc1nc2sc3c(c2c2nc(C(=O)NCCOCCO)nn12)C[C@@H](C)CC3 [Compound 13] the IC50 (S100P-RAGE interaction; [1]) was 126 nM.
